Measured values as given in publication PMC8204796 (ACS Pharmacology & Translational Science, 2021).

Test system: NPC1^I1061T patient-derived fibroblast cells (GM18453)
Assay: LipidTox Red lipid droplet staining
Format: cell-based, human
Details: 10 μM, 48 h, vs DMSO

CC(=O)Nc1ccc(C(=O)Nc2ccccc2N)cc1 [CI-994]
Lipid droplet formation (LipidTox Red): increases lipid droplet formation
